According to PubChem BioAssay AID330 (DTP/NCI, 2004):
Values joined by “and” are separate entries in the source; they are usually repeats but may differ in a detail not shown here. Equal entries are not always repeated. Toxic doses and inconclusive results are not listed. How the source made its calls: active means survival T/C of 150% or more; inactive means T/C below 125% in these data.

System: P388 leukemia ip, CD2F1 mice, survival T/C
Assay: NCI In Vivo Anticancer Drug Screen. Data for tumor model P388 Leukemia (intraperitoneal) in CD2F1 (CDF1) mice
Settings: endpoint: median survival time, higher = longer survival
Outline: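 Mice carrying the transplanted tumor received test compound or vehicle. Survival was recorded in each group, and the value is the treated-group measurement divided by that of the vehicle-treated control group.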

[1] = dose: 60.0 mg/kg/injection, schedule: Q01DX005 (ip), vehicle: saline with Tween-80
[2] = dose: 120.0 mg/kg/injection, schedule: Q01DX005 (ip), vehicle: saline with Tween-80
[3] = dose: 240.0 mg/kg/injection, schedule: Q01DX005 (ip), vehicle: saline with Tween-80
[4] = dose: 25.0 mg/kg/injection, schedule: Q01DX009 (ip), vehicle: saline with Tween-80
[5] = dose: 50.0 mg/kg/injection, schedule: Q01DX009 (ip), vehicle: saline with Tween-80
[6] = dose: 100.0 mg/kg/injection, schedule: Q01DX009 (ip), vehicle: saline with Tween-80
[7] = dose: 200.0 mg/kg/injection, schedule: Q01DX009 (ip), vehicle: saline with Tween-80
[8] = dose: 12.5 mg/kg/injection, schedule: Q01DX009 (ip), vehicle: Klucel (hydroxypropylcellulose) (HPC)
[9] = dose: 25.0 mg/kg/injection, schedule: Q01DX009 (ip), vehicle: Klucel (hydroxypropylcellulose) (HPC)
[10] = dose: 50.0 mg/kg/injection, schedule: Q01DX009 (ip), vehicle: Klucel (hydroxypropylcellulose) (HPC)
[11] = dose: 50.0 mg/kg/injection, schedule: Q01DX005 (ip), vehicle: saline with Tween-80
[12] = dose: 100.0 mg/kg/injection, schedule: Q01DX005 (ip), vehicle: saline with Tween-80
[13] = dose: 60.0 mg/kg/injection, schedule: Q01DX005 (ip), vehicle: Klucel (hydroxypropylcellulose) (HPC)
[14] = dose: 120.0 mg/kg/injection, schedule: Q01DX005 (ip), vehicle: Klucel (hydroxypropylcellulose) (HPC)
[15] = dose: 100.0 mg/kg/injection, schedule: Q01DX001 (ip), vehicle: Klucel (hydroxypropylcellulose) (HPC)
[16] = dose: 200.0 mg/kg/injection, schedule: Q01DX001 (ip), vehicle: Klucel (hydroxypropylcellulose) (HPC)
[17] = dose: 400.0 mg/kg/injection, schedule: Q01DX001 (ip), vehicle: Klucel (hydroxypropylcellulose) (HPC)
[18] = dose: 50.0 mg/kg/injection, schedule: Q01DX009 (ip), vehicle: saline

Measured: T/C

CC1(C)SC2C(NC(=O)C(N)c3ccccc3)C(=O)N2C1C(=O)O (centres undefined)
inactive: dose: 100.0 mg/kg/injection, schedule: Q04DX003 (ip), vehicle: saline with Tween-80 95 % of control | dose: 150.0 mg/kg/injection, schedule: Q01DX009 (ip), vehicle: saline with Tween-80 100 % of control | dose: 200.0 mg/kg/injection, schedule: Q04DX003 (ip), vehicle: saline with Tween-80 100 % of control | dose: 300.0 mg/kg/injection, schedule: Q01DX009 (ip), vehicle: saline with Tween-80 109 % of control | dose: 400.0 mg/kg/injection, schedule: Q04DX003 (ip), vehicle: saline with Tween-80 100 % of control | dose: 600.0 mg/kg/injection, schedule: Q01DX009 (ip), vehicle: saline with Tween-80 109 % of control

[CH3][Sn]1([CH3])[O]C(=O)c2ccccc2C(=O)[O]1
inactive: dose: 12.5 mg/kg/injection, schedule: Q01DX001 (ip), vehicle: Klucel (hydroxypropylcellulose) (HPC) 102 % of control and 111 % of control | dose: 25.0 mg/kg/injection, schedule: Q01DX001 (ip), vehicle: Klucel (hydroxypropylcellulose) (HPC) 101 % of control and 102 % of control | dose: 50.0 mg/kg/injection, schedule: Q01DX001 (ip), vehicle: Klucel (hydroxypropylcellulose) (HPC) 100 % of control

COc1ccccc1NC(=O)CC(=O)N1N=C(N(c2ccccc2)c2ccccc2)CC1c1ccccc1 (centres undefined)
inactive: [1] 108 % of control | [2] 107 % of control | [3] 96 % of control

CCOC(=O)N1CCc2nc3ccc(Cl)cc3cc21
inactive: [4] 117 % of control | [5] 98 % of control | [6] 99 % of control | [7] 108 % of control

CC1OC(C)(C)OC1C(=O)O (centres undefined)
inactive: dose: 3.13 mg/kg/injection, schedule: Q01DX009 (ip), vehicle: Klucel (hydroxypropylcellulose) (HPC) 89 % of control | dose: 6.25 mg/kg/injection, schedule: Q01DX009 (ip), vehicle: Klucel (hydroxypropylcellulose) (HPC) 95 % of control | [8] 92 % of control | [9] 89 % of control | [10] 89 % of control

CCOC(=O)C(=CNc1cc(C)c2[nH]c3ccc(Cl)cc3c2c1C)C(=O)OCC
inactive: [1] 92 % of control | [2] 93 % of control | [3] 86 % of control and 94 % of control

O=Nc1c(NO)n(-c2ccccc2)c(=S)n1-c1ccccc1
inactive: [11] 95 % of control | [12] 109 % of control | dose: 200.0 mg/kg/injection, schedule: Q01DX005 (ip), vehicle: saline with Tween-80 104 % of control

CC(O)(c1ccco1)c1nc2ccccc2s1 (centres undefined)
inactive: [13] 101 % of control | [14] 101 % of control

COc1cc(C2c3cc4c(cc3OC(OC(C)=O)C2C)OCO4)cc(OC)c1OC (centres undefined)
inactive: [1] 96 % of control | [2] 94 % of control | [3] 105 % of control

CC1(C(Cl)(Cl)Cl)C=CC(=O)C=C1
inactive: [5] 99 % of control | [6] 107 % of control | [7] 99 % of control

CN(CCC1(C)C(=O)CCc2ccccc21)Cc1ccccc1 (centres undefined)
inactive: dose: 12.5 mg/kg/injection, schedule: Q01DX005 (ip), vehicle: saline with Tween-80 102 % of control | dose: 25.0 mg/kg/injection, schedule: Q01DX005 (ip), vehicle: saline with Tween-80 96 % of control | [11] 100 % of control and 96 % of control

CCCCCCCCCCCCCC[N+](C)([O-])CCCCCC[N+](C)([O-])CCCCCCCCCCCCCC (centres undefined)
inactive: [8] 94 % of control | [9] 100 % of control | [10] 92 % of control and 93 % of control

Cc1ccccc1-n1c(-c2ccccc2)cs/c1=N\N=C1/CSC(=O)N1Cc1ccccc1
inactive: [15] 107 % of control | [16] 104 % of control | [17] 89 % of control

NC(CSCc1ccccc1)C(=O)O (centres undefined)
inactive: dose: 50.0 mg/kg/injection, schedule: Q01DX091 (ip), vehicle: Klucel (hydroxypropylcellulose) (HPC) 100 % of control | dose: 100.0 mg/kg/injection, schedule: Q01DX091 (ip), vehicle: Klucel (hydroxypropylcellulose) (HPC) 102 % of control | dose: 200.0 mg/kg/injection, schedule: Q01DX091 (ip), vehicle: Klucel (hydroxypropylcellulose) (HPC) 91 % of control | dose: 400.0 mg/kg/injection, schedule: Q01DX091 (ip), vehicle: Klucel (hydroxypropylcellulose) (HPC) 101 % of control

CCOC(=O)c1ccc(NC(=O)Nc2nncs2)cc1
inactive: dose: 6.25 mg/kg/injection, schedule: Q01DX009 (ip), vehicle: distilled water + Tween-80 114 % of control | dose: 12.5 mg/kg/injection, schedule: Q01DX009 (ip), vehicle: distilled water + Tween-80 119 % of control

C=C1c2c(O)c(C)c(O)c(C(C)=O)c2OC12CC(=O)C(C(=O)O)=C2C (centres undefined)
inactive: dose: 12.5 mg/kg/injection, schedule: Q01DX009 (ip), vehicle: gum acacia 105 % of control and 112 % of control | dose: 25.0 mg/kg/injection, schedule: Q01DX009 (ip), vehicle: gum acacia 108 % of control and 109 % of control | dose: 50.0 mg/kg/injection, schedule: Q01DX009 (ip), vehicle: gum acacia 108 % of control | dose: 100.0 mg/kg/injection, schedule: Q01DX009 (ip), vehicle: gum acacia 108 % of control and 110 % of control | dose: 200.0 mg/kg/injection, schedule: Q01DX009 (ip), vehicle: gum acacia 108 % of control and 110 % of control

CCc1ncc(C(C)(O)c2ccc(C)cc2)n1Cc1ccccc1 (centres undefined)
inactive: [13] 90 % of control | [14] 86 % of control | dose: 240.0 mg/kg/injection, schedule: Q01DX005 (ip), vehicle: Klucel (hydroxypropylcellulose) (HPC) 86 % of control

CCOC(=O)C1C/C(=N\OS(=O)(=O)c2ccc(C)cc2)c2ccc(OC)c(OC)c2C1 (centres undefined)
inactive: dose: 25.0 mg/kg/injection, schedule: Q01DX009 (ip), vehicle: other 92 % of control | dose: 50.0 mg/kg/injection, schedule: Q01DX009 (ip), vehicle: other 89 % of control | dose: 100.0 mg/kg/injection, schedule: Q01DX009 (ip), vehicle: other 87 % of control | dose: 400.0 mg/kg/injection, schedule: Q01DX009 (ip), vehicle: other 97 % of control

O=C(C[n+]1ccc2ccccc2c1)c1ccccc1
inactive: dose: 6.25 mg/kg/injection, schedule: Q01DX009 (ip), vehicle: saline 111 % of control | dose: 12.5 mg/kg/injection, schedule: Q01DX009 (ip), vehicle: saline with Tween-80 113 % of control | dose: 12.5 mg/kg/injection, schedule: Q01DX009 (ip), vehicle: saline 108 % of control | [4] 104 % of control | dose: 25.0 mg/kg/injection, schedule: Q01DX009 (ip), vehicle: saline 98 % of control | [5] 104 % of control | [18] 110 % of control

OC1C=C2CCN3Cc4cc5c(cc4C(C1O)C23)OCO5 (centres undefined)
inactive: dose: 8.75 mg/kg/injection, schedule: Q01DX009 (ip), vehicle: Klucel (hydroxypropylcellulose) (HPC) 96 % of control | dose: 17.5 mg/kg/injection, schedule: Q01DX009 (ip), vehicle: Klucel (hydroxypropylcellulose) (HPC) 96 % of control | dose: 35.0 mg/kg/injection, schedule: Q01DX009 (ip), vehicle: Klucel (hydroxypropylcellulose) (HPC) 106 % of control | dose: 70.0 mg/kg/injection, schedule: Q01DX009 (ip), vehicle: Klucel (hydroxypropylcellulose) (HPC) 109 % of control

O=C(O)CCCCC=C(c1ccccc1)c1ccccc1
inactive: dose: 50.0 mg/kg/injection, schedule: Q01DX005 (ip), vehicle: saline + Tween-80 + alcohol 101 % of control | dose: 100.0 mg/kg/injection, schedule: Q01DX005 (ip), vehicle: saline + Tween-80 + alcohol 102 % of control | dose: 200.0 mg/kg/injection, schedule: Q01DX005 (ip), vehicle: saline + Tween-80 + alcohol 101 % of control

CC(C)(C)c1ccc(S(=O)(=O)O)cc1
inactive: [18] 103 % of control | dose: 100.0 mg/kg/injection, schedule: Q01DX009 (ip), vehicle: saline 100 % of control | dose: 200.0 mg/kg/injection, schedule: Q01DX009 (ip), vehicle: saline 86 % of control

O=c1ccc2[n+]([O-])c3ccc(O)cc3oc-2c1
inactive: [11] 95 % of control | [12] 100 % of control

CC(=O)NCC1(C)CCCC2(C)C3=CC(=O)C(C(C)C)=CC3(O)CCC12 (centres undefined)
inactive: [15] 98 % of control | [16] 90 % of control | [17] 94 % of control
